The values below come from patent US20070142437A1, “CHEMICAL COMPOUNDS” (priority 2005, published 2007).

Structures are written as SMILES.

One assay concerns the target T1, CDK4 (Homo sapiens, UniProt P11802).
T1 construct: made in house
The assay can be described thus: CDK4 substrate phosphorylation assay (Rb protein, 33P-ATP). Conditions: Inhibition of CDK4. The assay is classed as biochemical. The procedure:
(§1) The compounds of the present invention have valuable pharmacologic properties. Different compounds from this class are particularly effective at inhibiting CDK2 and/or CDK4 enzymes at concentrations, which range from 0.0001 to 1 μM and additionally show specificity relative to other kinases. Substrate phosphorylation assays were carried out as follows:
Cyclin D1 and cyclin-dependent kinase 4 were expressed utilizing a baculovirus expression system. The catalytic activity of CDK4 protein was assayed by measuring the phosphorylation of Rb protein. A truncated Rb protein (residues 773-928 of the native retinoblastoma protein, fused to glutathione S-transferase to facilitate purification) was used as the phosphoryl acceptor. The assay conditions were 100 mM HEPES (N-[2-hydroxyethyl]piperzine-N′-[2-ethanesulfonic acid]), pH 7.5, 0.5 μM GST-Rb protein, 1 μCi/mL [^33P]-ATP (1 nM-20 μM), 5-20 mM MgCl2, 2.5 mM EDTA, 1 mM dithiotheitol, 0.2 mg/mL bovine serum albumin, 2% (v/v) dimethyl sulfoxide (DMSO), CDK4 enzyme (5-50 nM) in a final volume of 50 μL. Reactions were incubated for time periods of 10-60 min at 30° C. and terminated by the addition of 50 μL quench (1 mM ATP/100 mM EDTA, pH 7.0). Detection of protein phosphorylation was accomplished by scintillation counting following collection of protein in 96 well plates coated with Glutathione or trapping of protein onto phosphocellulose filters. Counts detected by these methodologies minus the appropriate background were assumed to be proportional to the reaction initial rates. IC50 values were determined by measuring enzyme activity in the presence of different inhibitor concentrations (0.1 nM to 50 μM). IC50s were determined by a least squares fit to the equation CPM=Vmax*(1−([I]/(K+[I])))+nsb, or pIC50s were determined by a fit to the equation CPM=nsb+(Vmax−nsb)/(1+(x/10^x−pIC50)), where nsb are the background counts.

A further assay concerns the target T2, CDK2 (Homo sapiens, UniProt P24941).
T2 construct: made in house
The assay can be described thus: CDK2 substrate phosphorylation assay (biotinylated peptide, 32P-ATP). Conditions: Inhibition of CDK2. Type of assay: biochemical. The protocol: as §1
Cyclin dependent protein kinase 2 assays utilized the peptide Biotin-aminohexyl-ARRPMSPKKKA-NH2 as phosphoryl group acceptor. CDK2 was expressed utilizing a baculovirus expression system and was partially purified to comprise 20-80% of total protein, with no detectable competing reactions present. Typically, assays were performed by incubating enzyme (0.2-10 nM), with and without inhibitor, peptide substrate (1-10 nM), [g-^32P]ATP (1-20 nM), and 10-20 mM Mg^2+ for periods of time generally within the range 10-120 minutes. Reactions were terminated with 0.2-2 volumes of either 20% acetic acid or 50-100 mM EDTA buffered to pH 7 (substrate consumption <20%). The buffer employed in enzyme assay was 100 mM HEPES pH 7.5 containing 0.1 mg/mL BSA and 5% DMSO. Inhibitors were diluted in 100% DMSO prior to addition into the assay. Detection of peptide phosphorylation was accomplished by scintillation counting following either collection of peptide onto phosphocellulose filters (for reactions stopped with acetic acid), collection of peptide in wells of 96 well plates coated with Streptavidin (Pierce) (reactions were stopped with EDTA), or addition of Avidin coated Scintillant impregnated beads (Scintillation Proximity Assays from Amersham, reactions were stopped with EDTA). Counts detected by any of these methodologies minus the appropriate background (assays with additional 40 mM EDTA or lacking peptide substrate) were assumed to be proportional to the reaction initial rates, and IC50s were determined by a least squares fit to the equation CPM=Vmax*(1−([I]/(K+[I])))+nsb, or −pIC50s were determined by a fit to the equation CPM=nsb+(Vmax−nsb)/(1+(x/10^x−pIC50)), where nsb are the background counts. Filters are washed four times with 75 mM phosphoric acid. Radioactivity was determined by liquid scintillation counting.

The next assay deals with hVEGFR2 (Homo sapiens, UniProt P35968). Kind of assay: VEGFR2 HTRF assay. Type of assay: biochemical. Conditions: Inhibition of VEGFR2. The protocol:
The compounds of the present invention elicit important and measurable pharmacological responses. Different compounds from this class are particularly effective at inhibiting VEGFR2 enzymes, as described by the VEGFR2 HTRF assay below, at concentrations, which range from 0.0001 to 1 μM.
The assays were performed in 96-well black plates. 10 nM hVEGFR2 was used to phosphorylate 0.36 μM peptide (Biotin-Ahx-EEEEYFELVAKKKK) in the presence of 75 μM ATP, 5 mM MgCl2, 0.3 mM DTT, 0.1 mg/ml BSA, and 0.1 M HEPES (pH 7.5). 10 μl 0.5 M EDTA was added to reactions as negative controls. The 50 μl kinase reaction with or without inhibitors in 5% DMSO was carried out at room temperature for 45 minutes, then stopped by 40 μl of 125 mM EDTA. 2.4 μg/ml Streptavidin-APC and 0.15 μg/ml Eu-α-pY, in the presence of 0.1 mg/ml BSA, 0.1 M HEPES (pH7.5), were added to a final volume of 140 μl. The plate was incubated for 10 min at room temperature (22° C.) and read on the Victor with the time resolved fluorescence mode by exciting at 340 nm and reading the emission at 665 nm.
• Peptide from Synpep (Dublin, Calif.) • ATP, MgCl2, DTT, BSA, HEPES, EDTA, DMSO from Sigma Streptavidin-APC from Molecular Probes (Eugene, Oreg.) • Eu-α-pY from EG&G Wallac (Gaithersburg, Md.)
(In TR-FRET formats the signal depends on donor and acceptor labels being close together.)

The test system of the next assay is HUVEC cells. Kind of assay: Human Umbilical Vein Endothelial Cell (HUVEC) proliferation assay (BrdU incorporation). The assay is classed as cell-based. The note with it: growth stimulated with VEGF, 72 hrs, read-out: Inhibition of HUVEC proliferation IC50. The protocol:
Human Umbilical Vein Endothelial Cell (HUVEC) Proliferation Assay (BrdU Incorporation) Materials
HUVEC cells and EGM-MV (Endothelial cell growth medium—microvascular) were purchased from Clonetics (San Diego, Calif.). VEGF and bFGF were purchased from R&D Systems (Minneapolis, Minn.). Anti-BrdU antibody was obtained from Chemicon International (Temecula, Calif.).
HUVECs were routinely maintained in EGM-MV medium and were used within passage 7. HUVECs were plated at a density of 2500 cells/well in M199 medium containing 5% FBS (Hyclone) in type I collagen coated plate (Becton Dickinson). The plate was incubated at 37° C. overnight. The medium was removed by aspiration, and test compounds were added to each well in a volume of 0.1 ml/well in serum-free M199 medium. Compound concentrations ranged from 1.5 nM to 30 micromolar. The plate was incubated for 30 min at 37° C. Another 0.1 ml of serum-free M199 medium containing BSA and VEGF (or bFGF) was added to give a final concentration of 0.1% BSA and 10 ng/ml VEGF (0.3 ng/ml bFGF). The plate was incubated at 37° C. for 72 hrs. BrdU was added to each well after the first 48 hrs to give a concentration of 10 micromolar. The colorimetric ELISA assay was performed according to manufacturer's (Roche Molecular Sciences) instructions, with detection by absorbance reading at 450 nm. Results were plotted as concentration of test compound vs. absorbance to give an IC50 value for inhibition of BrdU incorporation.

T1 sequence (P11802 whole entry, species assumed): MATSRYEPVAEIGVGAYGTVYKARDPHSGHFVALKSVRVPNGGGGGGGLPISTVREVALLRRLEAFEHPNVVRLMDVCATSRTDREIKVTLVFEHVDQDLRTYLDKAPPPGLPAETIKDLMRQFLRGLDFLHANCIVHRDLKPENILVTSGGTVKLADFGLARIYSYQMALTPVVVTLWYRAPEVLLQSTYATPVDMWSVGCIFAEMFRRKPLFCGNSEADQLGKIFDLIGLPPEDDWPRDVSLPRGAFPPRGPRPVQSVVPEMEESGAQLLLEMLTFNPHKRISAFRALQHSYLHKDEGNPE
T1 sequence (P24385 whole entry partner, species assumed): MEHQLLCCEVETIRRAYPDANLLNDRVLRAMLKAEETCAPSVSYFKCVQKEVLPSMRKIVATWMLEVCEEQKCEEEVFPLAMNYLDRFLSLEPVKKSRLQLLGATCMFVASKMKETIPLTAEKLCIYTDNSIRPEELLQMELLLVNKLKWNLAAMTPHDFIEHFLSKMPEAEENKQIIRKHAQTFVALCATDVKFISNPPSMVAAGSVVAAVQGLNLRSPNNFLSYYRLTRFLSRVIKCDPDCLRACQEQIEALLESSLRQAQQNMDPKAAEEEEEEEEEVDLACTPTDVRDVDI
Chain of hVEGFR2 (P35968 20-1356): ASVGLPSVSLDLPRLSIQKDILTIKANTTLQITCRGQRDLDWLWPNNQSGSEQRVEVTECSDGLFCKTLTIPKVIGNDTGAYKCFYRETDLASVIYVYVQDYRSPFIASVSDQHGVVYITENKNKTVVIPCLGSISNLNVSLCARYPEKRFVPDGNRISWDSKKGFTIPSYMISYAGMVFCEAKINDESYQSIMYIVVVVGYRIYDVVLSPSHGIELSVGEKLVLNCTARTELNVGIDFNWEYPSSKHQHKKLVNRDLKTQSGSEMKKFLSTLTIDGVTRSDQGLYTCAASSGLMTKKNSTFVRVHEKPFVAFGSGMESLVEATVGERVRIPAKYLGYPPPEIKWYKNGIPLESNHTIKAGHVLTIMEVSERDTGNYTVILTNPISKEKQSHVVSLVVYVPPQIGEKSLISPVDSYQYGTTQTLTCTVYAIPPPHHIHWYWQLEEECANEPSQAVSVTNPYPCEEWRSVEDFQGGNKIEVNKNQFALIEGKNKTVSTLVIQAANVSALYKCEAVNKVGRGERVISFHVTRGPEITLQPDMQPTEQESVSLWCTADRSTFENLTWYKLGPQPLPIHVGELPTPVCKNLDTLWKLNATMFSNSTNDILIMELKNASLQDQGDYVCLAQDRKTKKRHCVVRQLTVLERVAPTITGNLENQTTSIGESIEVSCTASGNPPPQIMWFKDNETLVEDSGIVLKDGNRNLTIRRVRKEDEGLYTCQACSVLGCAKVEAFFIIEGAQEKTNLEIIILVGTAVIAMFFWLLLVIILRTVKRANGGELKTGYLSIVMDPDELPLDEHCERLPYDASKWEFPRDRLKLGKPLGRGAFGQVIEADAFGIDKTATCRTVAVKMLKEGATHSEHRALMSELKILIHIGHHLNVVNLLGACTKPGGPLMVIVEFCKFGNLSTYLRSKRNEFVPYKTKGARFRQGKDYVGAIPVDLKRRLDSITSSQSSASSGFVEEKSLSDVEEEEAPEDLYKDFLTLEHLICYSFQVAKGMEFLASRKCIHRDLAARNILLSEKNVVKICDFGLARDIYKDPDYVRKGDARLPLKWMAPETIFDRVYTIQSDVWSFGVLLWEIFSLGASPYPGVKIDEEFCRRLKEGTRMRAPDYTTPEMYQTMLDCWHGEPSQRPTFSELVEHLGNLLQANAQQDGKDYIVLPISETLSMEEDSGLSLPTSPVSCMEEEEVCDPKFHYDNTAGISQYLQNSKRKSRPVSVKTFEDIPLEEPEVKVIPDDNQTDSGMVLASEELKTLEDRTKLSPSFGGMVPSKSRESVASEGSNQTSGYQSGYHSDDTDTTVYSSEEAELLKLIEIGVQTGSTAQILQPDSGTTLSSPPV

Regarding `COc1cccc(-c2cnc(Nc3ccccc3)o2)c1` [Example 1, 5-(3-methoxyphenyl)-N-phenyl-1,3-oxazol-2-amine], the IC50 against CDK4 is less than 1 µM; on CDK2, less than 1 µM; against hVEGFR2 it was less than 10 µM.

Take `Oc1cccc(-c2cnc(Nc3ccccc3)o2)c1` [Example 2, 3-(2-anilino-1,3-oxazol-5-yl)phenol]: the IC50 on CDK4, at CDK2 and against hVEGFR2 was less than 1 µM throughout.

For `CN1CCN(c2ccc(Nc3ncc(-c4ccccc4)o3)cc2)CC1` [Example 3, N-[4-(4-methylpiperazin-1-yl)phenyl]-5-phenyl-1,3-oxazol-2-amine], the values for the IC50 on CDK4, at CDK2 and against hVEGFR2 were less than 1 µM, less than 10 µM and less than 1 µM, respectively.

As to `COc1cccc(-c2cnc(Nc3ccc(N4CCN(C)CC4)cc3)o2)c1` [Example 4, 5-(3-Methoxyphenyl)-N-[4-(4-methylpiperazin-1-yl)phenyl]-1,3-oxazol-2-amine], the figures for the IC50 against CDK4, against CDK2 and against hVEGFR2 were less than 0.1 µM, less than 1 µM and less than 1 µM, respectively.

Take `CCOc1cccc(-c2cnc(Nc3ccc(N4CCN(C)CC4)cc3)o2)c1` [Example 5, 5-(3-Ethoxyphenyl)-N-[4-(4-methylpiperazin-1-yl)phenyl]-1,3-oxazol-2-amine]: the IC50 on CDK4 was less than 0.1 µM; against CDK2, less than 1 µM; on hVEGFR2 it was less than 1 µM.

Consider `CCN1CCN(c2ccc(Nc3ncc(-c4cccc(OC)c4)o3)cc2)CC1` [Example 6, N-[4-(4-Ethylpiperazin-1-yl)phenyl]-5-(3-methoxyphenyl)-1,3-oxazol-2-amine], for which the IC50 at CDK4 was less than 0.1 µM; at CDK2 it was less than 1 µM; on hVEGFR2, less than 1 µM.

For `CCN1CCN(c2ccc(Nc3ncc(-c4ccccc4)o3)cc2)CC1` [Example 7, N-[4-(4-Ethylpiperazin-1-yl)phenyl]-5-phenyl-1,3-oxazol-2-amine], the IC50 is less than 1 µM against CDK4, less than 10 µM against CDK2 and less than 1 µM against hVEGFR2.

Consider `COc1cccc(-c2cnc(Nc3ccc(N4CCCCC4)cc3)o2)c1` [Example 10, 5-(3-Methoxyphenyl)-N-(4-piperidin-1-ylphenyl)-1,3-oxazol-2-amine], for which the IC50 on CDK4 was less than 10 µM; on hVEGFR2, less than 1 µM.

Consider `CN1CCN(c2ccc(Nc3ncc(-c4cccc(O)c4)o3)cc2)CC1` [Example 29, 3-(2-{[4-(4-methylpiperazin-1-yl)phenyl]amino}-1,3-oxazol-5-yl)phenol], for which the figures for the IC50 on CDK4 and against hVEGFR2 were less than 0.1 µM and less than 1 µM, respectively.

`COc1cccc(-c2cnc(Nc3ccc(-n4ccnc4)nc3)o2)c1` [Example 32, 6-(1H-imidazol-1-yl)-N-[5-(3-methoxyphenyl)-1,3-oxazol-2-yl]pyridin-3-amine] gave an IC50 at CDK4 of less than 10 µM.

Compound `COc1cccc(-c2cnc(Nc3ccc(N4CCCCC4)nc3)o2)c1` [Example 33, N-[5-(3-methoxyphenyl)-1,3-oxazol-2-yl]-6-piperdin-1-ylpyridin-3-amine] had an IC50 against CDK4 of less than 10 µM.

On to `CN(C)Cc1ccc(Nc2ncc(-c3cccc(OC4CCCC4)c3)o2)cc1` [Example 41, 5-[3-(cyclopentyloxy)phenyl]-N-{4-[(dimethylamino)methyl]phenyl}-1,3-oxazol-2-amine], for which the IC50 against CDK4 is less than 0.1 µM; at hVEGFR2, less than 1 µM.

Turning to `CCCN1CCC(c2csc(Nc3ncc(-c4cccc(OC)c4)o3)n2)CC1` [Example 49, 5-(3-methoxyphenyl)-N-[4-(1-propylpiperidin-4-yl)-1,3-thiazol-2-yl]-1,3-oxazol-2-amine], the IC50 against CDK4 is less than 1 µM.

For the compound `COc1ccc(S(=O)(=O)NC(C)C)cc1Nc1ncc(-c2cccc(-c3ccccc3)c2)o1` [Example 224, 3-{[5-(1,1′-biphenyl-3-yl)-1,3-oxazoI-2-yl]amino}-N-isopropyl-4-methoxybenzenesulfonamide], the IC50 with HUVEC cells was less than 0.5 µM.

In the case of `COc1ccc(S(=O)(=O)N(C)C)cc1Nc1ncc(-c2cccc(-c3ccccc3)c2)o1` [Example 225, 3-{[5-(1,1′-biphenyl-3-yl)-1,3-oxazol-2-yl]amino}-4-methoxy-N,N-dimethylbenzenesulfonamide], in the assay with HUVEC cells, the IC50 is less than 0.5 µM.

As to `COc1ccc(S(=O)(=O)NC2CC2)cc1Nc1ncc(-c2cccc(-c3ccccc3)c2)o1` [Example 226, 3-{[5-(1,1′-biphenyl-3-yl)-1,3-oxazol-2-yl]amino}-N-cyclopropyl-4-methoxybenzenesulfonamide], in the assay on HUVEC cells, the IC50 is less than 0.5 µM.

With `CCCCNS(=O)(=O)c1ccc(OC)c(Nc2ncc(-c3cccc(-c4ccccc4)c3)o2)c1` [Example 227, 3-{[5-(1,1′-biphenyl-3-yl)-1,3-oxazol-2-yl]amino}-N-butyl-4-methoxybenzenesulfonamide], the IC50 in the assay on HUVEC cells is less than 1 µM.

Take `CCN(CC)S(=O)(=O)c1ccc(OC)c(Nc2ncc(-c3cccc(-c4ccccc4)c3)o2)c1` [Example 228, 3-{[5-(1,1′-biphenyl-3-yl)-1,3-oxazol-2-yl]amino}-N,N-diethyl-4-methoxybenzenesulfonamide]: the IC50 with HUVEC cells is less than 0.5 µM.

Turning to `COc1ccc(S(=O)(=O)NCC2CCCO2)cc1Nc1ncc(-c2cccc(-c3ccccc3)c2)o1` (stereo not drawn) [Example 229, 3-{[5-(1,1′-biphenyl-3-yl)-1,3-oxazol-2-yl]amino}-4-methoxy-N-(tetrahydrofuran-2-ylmethyl)benzenesulfonamide], the IC50 with HUVEC cells was less than 1 µM.
